≈ marks a conversion by molar mass, not a printed value. Like-named read-outs stand apart in the source and are kept apart here. Numbered stars: 1 amine (or outer) side, 2 acyl side, 3 side chain; on linkers, the order of the positions; unused ones are H or OH. Square brackets hold non-standard residues; d marks the D form. Peptide text beside a SMILES is read from it. X1 = O=C(CN(CC(c1ccccc1)c1ccccc1)[*:1])[*:2]; Gly(N-(CH2)6NH2) = NCCCCCCNCC(=O)O; Gly(N(CH2)3NH2) = NCCCNCC(=O)O; NhArg = N=C(N)NCCCCNCC(=O)O; N(iPr)Gly = CC(C)NCC(=O)O; Nphe = O=C(O)CNCc1ccccc1; Nleu = CC(C)CNCC(=O)O; Nlys = NCCCCNCC(=O)O
Legend:
Assay type in all cases: cell-based
[1] = system: Staphylococcus aureus ATCC 25923
Experimental: (§1) Antimicrobial activity was tested against the gram-negative strain Escherichia coli ATCC 25922, and […] strains Staphylococcus aureus ATCC 25923, and Bacillus subtilis ATCC 6633, according to the guidelines given in the document […]-A7 of the CLSI (Clinical and Laboratory Standards Institute; Clinical and Laboratory Standards Institute. Methods for Dilution Antimicrobial Susceptibility Tests for Bacteria That Grow Aerobically-Seventh Edition: Approved Standard CLSI document […]-A7. CLSI, Wayne, USA, 2006). This reference is incorporated herein in its entirety. Hemolytic activity was tested against fresh human erythrocytes.

[2] = system: Bacillus subtilis ATCC 6633
Experimental: as §1

[3] = system: Escherichia coli ATCC 25922
Experimental: as §1

fresh human erythrocytes = experiment: Hemolytic activity
Experimental: Typically, toxicity is evaluated by hemolytic concentration50 (HC50), which measures the concentration of antimicrobial agents at which 50% of the erythrocytes in the culture are lysed. Significant hemolysis, as evaluated by HC50, was detectable only for peptide gramicidin S (40 μg/mL). […] In order to test hemolytic activity of peptoid oligomers further, more stringent parameters were used. Instead of HC50, hemolytic concentration10 (HC10) was used to evaluate hemolytic activity of peptoids used in this study. HC10 represents the concentration of antimicrobial agents where 10% of erythrocytes are lysed. HC10 values were detectable for only four peptoid oligomers. […] Antimicrobial activity was tested against the gram-negative strain Escherichia coli ATCC 25922, and […] strains Staphylococcus aureus ATCC 25923, and Bacillus subtilis ATCC 6633, according to the guidelines given in the document […]-A7 of the CLSI (Clinical and Laboratory Standards Institute; Clinical and Laboratory Standards Institute. Methods for Dilution Antimicrobial Susceptibility Tests for Bacteria That Grow Aerobically-Seventh Edition: Approved Standard CLSI document […]-A7. CLSI, Wayne, USA, 2006). This reference is incorporated herein in its entirety. Hemolytic activity was tested against fresh human erythrocytes.

MIC S. aureus ([1]; ATCC 25923) | MIC B. sub ([2]; ATCC 6633) | MIC E. coli ([3]; ATCC 25922) | Structure (SMILES) | HC10 (concentration where 10% hemolysis is observed) (fresh human erythrocytes; red cells of human) | HC50 (concentration where 50% hemolysis is observed) (fresh human erythrocytes; red cells of human) | non-hemolytic up to (concentration) (fresh human erythrocytes) | MIC S. aureus ([1]; S. aureus ATCC 25923) | MIC B. sub ([2]; B. subtilis ATCC 6633) | MIC E. coli ([3]; E. coli ATCC 25922) | HC10 (concentration where 10% hemolysis is observed) (fresh human erythrocytes; fresh human erythrocytes) | HC50 (concentration where 50% hemolysis is observed) (fresh human erythrocytes; fresh human erythrocytes)
>500 µg/mL | >500 µg/mL | >500 µg/mL | CC(=O)N(CCCCN)CC(=O)N(CC(=O)N(CCCCN)CC(=O)N(CC(=O)N(CCCCN)CC(=O)N(CC(N)=O)Cc1ccccc1)Cc1ccccc1)Cc1ccccc1 [Compound 14, Ac(NabNpm)3] (Ac-[Nlys][Nphe][Nlys][Nphe][Nlys][Nphe]-NH2) | >250 µg/mL | >250 µg/mL |  |  |  |  |  | 
250 µg/mL (≈ 226 µM) | 31.3 µg/mL (≈ 28.3 µM) | 250 µg/mL (≈ 226 µM) | CC(=O)N(CCCN)CC(=O)N(CC(=O)N(CCCN)CC(=O)N(CC(=O)N(CCCN)CC(=O)N(CC(=O)N(CCCN)CC(=O)N(CC(N)=O)Cc1ccccc1)Cc1ccccc1)Cc1ccccc1)Cc1ccccc1 [Compound 8, Ac(NapNpm)4] (Ac-[Gly(N(CH2)3NH2)][Nphe][Gly(N(CH2)3NH2)][Nphe][Gly(N(CH2)3NH2)][Nphe][Gly(N(CH2)3NH2)][Nphe]-NH2) | >250 µg/mL | >250 µg/mL |  |  |  |  |  | 
250 µg/mL (≈ 297 µM) | 125 µg/mL (≈ 148 µM) | 125 µg/mL (≈ 148 µM) | CC(=O)N(CCCN)CC(=O)N(CC(=O)N(CCCN)CC(=O)N(CC(=O)N(CCCN)CC(=O)N(CC(N)=O)Cc1ccccc1)Cc1ccccc1)Cc1ccccc1 [Compound 7, Ac(NapNpm)3] (Ac-[Gly(N(CH2)3NH2)][Nphe][Gly(N(CH2)3NH2)][Nphe][Gly(N(CH2)3NH2)][Nphe]-NH2) | >250 µg/mL | >250 µg/mL |  |  |  |  |  | 
>500 µg/mL | 31.3 µg/mL (≈ 35.7 µM) | >500 µg/mL | CC(=O)N(CC(=O)N(CCCN)CC(=O)N(CC(=O)N(CCCN)CC(=O)N(CC(=O)N(CC(N)=O)Cc1ccccc1)Cc1ccccc1)Cc1ccccc1)Cc1ccccc1 [Compound 10, Ac(NpmNap)2Npm2] (Ac-[Nphe][Gly(N(CH2)3NH2)][Nphe][Gly(N(CH2)3NH2)][Nphe][Nphe]-NH2) | >250 µg/mL | >250 µg/mL |  |  |  |  |  | 
125 µg/mL (≈ 124 µM) | 62.5 µg/mL (≈ 61.8 µM) | 250 µg/mL (≈ 247 µM) | CC(=O)N(CCCCNC(=N)N)CC(=O)N(CC(=O)N(CCCCNC(=N)N)CC(=O)N(CC(=O)N(CCCCNC(=N)N)CC(=O)N(CC(N)=O)Cc1ccccc1)Cc1ccccc1)Cc1ccccc1 [Compound 2, Ac(NgbNpm)3] (Ac-[NhArg][Nphe][NhArg][Nphe][NhArg][Nphe]-NH2) | >250 µg/mL | >250 µg/mL |  |  |  |  |  | 
500 µg/mL (≈ 335 µM) | 500 µg/mL (≈ 335 µM) | 250 µg/mL (≈ 167 µM) | CC(=O)N(CC(=O)N(CC(=O)N(CCCCNC(=N)N)CC(=O)N(CC(=O)N1CCC[C@H]1C(=O)N(CC(=O)N(CC(=O)N(CCCCNC(=N)N)CC(=O)N(CC(=O)N1CCC[C@H]1C(N)=O)C(C)C)CC(C)C)CC(c1ccccc1)c1ccccc1)C(C)C)CC(C)C)CC(c1ccccc1)c1ccccc1 [Compound 12, Ac(NdpNibNgbNipPro)2] (Ac-[X1][Nleu][NhArg][N(iPr)Gly]P[X1][Nleu][NhArg][N(iPr)Gly]P-NH2) | >250 µg/mL | >250 µg/mL |  |  |  |  |  | 

More lines, now with the values behind:

Structure (SMILES) | MIC S. aureus ([1]; ATCC 25923) | MIC B. sub ([2]; ATCC 6633) | MIC E. coli ([3]; ATCC 25922) | HC10 (concentration where 10% hemolysis is observed) (fresh human erythrocytes; red cells of human) | HC50 (concentration where 50% hemolysis is observed) (fresh human erythrocytes; red cells of human) | non-hemolytic up to (concentration) (fresh human erythrocytes) | MIC S. aureus ([1]; S. aureus ATCC 25923) | MIC B. sub ([2]; B. subtilis ATCC 6633) | MIC E. coli ([3]; E. coli ATCC 25922) | HC10 (concentration where 10% hemolysis is observed) (fresh human erythrocytes; fresh human erythrocytes) | HC50 (concentration where 50% hemolysis is observed) (fresh human erythrocytes; fresh human erythrocytes)
CC(C)CN1CC(=O)N(CCCCNC(=N)N)CC(=O)N(C(C)C)CC(=O)N2CCC[C@H]2C(=O)N(CC(c2ccccc2)c2ccccc2)CC(=O)N(CC(C)C)CC(=O)N(CCCCNC(=N)N)CC(=O)N(C(C)C)CC(=O)N2CCC[C@H]2C(=O)N(CC(c2ccccc2)c2ccccc2)CC1=O [Compound 28, C(NdpNibNgbNipPro)2] (cyclo([Nleu][NhArg][N(iPr)Gly]P[X1][Nleu][NhArg][N(iPr)Gly]P[X1])) | 62.5 µg/mL (≈ 43.6 µM) | 62.5 µg/mL (≈ 43.6 µM) | 31.3 µg/mL (≈ 21.8 µM) | >250 µg/mL | >250 µg/mL |  |  |  |  |  | 
NCCCN1CC(=O)N(Cc2ccccc2)CC(=O)N(CCCN)CC(=O)N(Cc2ccccc2)CC(=O)N(CCCN)CC(=O)N(Cc2ccccc2)CC(=O)N(CCCN)CC(=O)N(Cc2ccccc2)CC(=O)N(CCCN)CC(=O)N(Cc2ccccc2)CC1=O [Compound 25, C(NapNpm)5] (cyclo([Nphe][Gly(N(CH2)3NH2)][Nphe][Gly(N(CH2)3NH2)][Nphe][Gly(N(CH2)3NH2)][Nphe][Gly(N(CH2)3NH2)][Nphe][Gly(N(CH2)3NH2)])) | 7.8 µg/mL (≈ 5.97 µM) | 0.5 µg/mL (≈ 0.383 µM) | 7.8 µg/mL (≈ 5.97 µM) | >250 µg/mL | >250 µg/mL | ≥ 250 µg/mL |  |  |  |  | 
N=C(N)NCCCCN1CC(=O)N(CC(c2ccccc2)c2ccccc2)CC(=O)N(CC(c2ccccc2)c2ccccc2)CC(=O)N(CC(c2ccccc2)c2ccccc2)CC(=O)N(CCCCNC(=N)N)CC(=O)N(CC(c2ccccc2)c2ccccc2)CC1=O [Compound 32, C(NdpNgb)2Ndp2] | >500 µg/mL | >500 µg/mL | >500 µg/mL | >250 µg/mL | >250 µg/mL |  |  |  |  |  | 
NCCCCCCN1CC(=O)N(Cc2ccccc2)CC(=O)N(CCCCCCN)CC(=O)N(Cc2ccccc2)CC(=O)N(CCCCCCN)CC(=O)N(Cc2ccccc2)CC1=O [Compound 19, C(NahNpm)3] (cyclo([Nphe][Gly(N-(CH2)6NH2)][Nphe][Gly(N-(CH2)6NH2)][Nphe][Gly(N-(CH2)6NH2)])) | >500 µg/mL | 500 µg/mL (≈ 549 µM) | 500 µg/mL (≈ 549 µM) | >250 µg/mL | >250 µg/mL |  |  |  |  |  | 
NCCCN1CC(=O)N(Cc2ccccc2)CC(=O)N(CCCN)CC(=O)N(Cc2ccccc2)CC(=O)N(CCCN)CC(=O)N(Cc2ccccc2)CC(=O)N(CCCN)CC(=O)N(Cc2ccccc2)CC1=O [Compound 24, C(NapNpm)4] (cyclo([Nphe][Gly(N(CH2)3NH2)][Nphe][Gly(N(CH2)3NH2)][Nphe][Gly(N(CH2)3NH2)][Nphe][Gly(N(CH2)3NH2)])) | 31.3 µg/mL (≈ 29.9 µM) | 2 µg/mL (≈ 1.91 µM) | 31.3 µg/mL (≈ 29.9 µM) | >250 µg/mL | >250 µg/mL | ≥ 250 µg/mL |  |  |  |  | 
NCCCN1CC(=O)N(Cc2ccccc2)CC(=O)N(Cc2ccccc2)CC(=O)N(Cc2ccccc2)CC(=O)N(CCCN)CC(=O)N(Cc2ccccc2)CC1=O [Compound 26, C(NpmNap)2Npm2] (cyclo([Nphe][Nphe][Nphe][Gly(N(CH2)3NH2)][Nphe][Gly(N(CH2)3NH2)])) | 500 µg/mL (≈ 612 µM) | 15.6 µg/mL (≈ 19.1 µM) | 500 µg/mL (≈ 612 µM) | >250 µg/mL | >250 µg/mL |  |  |  |  |  | 
CC(C)CN1CC(=O)N(Cc2ccccc2)CC(=O)N2CCC[C@H]2C(=O)N(C(C)C)CC(=O)N(CCCN)CC(=O)N(CC(C)C)CC(=O)N(Cc2ccccc2)CC(=O)N2CCC[C@H]2C(=O)N(C(C)C)CC(=O)N(CCCN)CC1=O [Compound 27, C(NipNapNibNpmPro)2] (cyclo([Nleu][Nphe]P[N(iPr)Gly][Gly(N(CH2)3NH2)][Nleu][Nphe]P[N(iPr)Gly][Gly(N(CH2)3NH2)])) |  |  |  |  |  |  | >500 µg/mL | >500 µg/mL | >500 µg/mL | >250 µg/mL | >250 µg/mL
NCCCN1CC(=O)N(CC(c2ccccc2)c2ccccc2)CC(=O)N(CCCN)CC(=O)N(CC(c2ccccc2)c2ccccc2)CC(=O)N(CCCN)CC(=O)N(CC(c2ccccc2)c2ccccc2)CC1=O [Compound 20, C(NapNdp)3] | 7.8 µg/mL (≈ 7.4 µM) | 1 µg/mL (≈ 0.948 µM) | 15.6 µg/mL (≈ 14.8 µM) | >31.3 µg/mL | >250 µg/mL |  |  |  |  |  | 
NCCCN1CC(=O)N(Cc2ccc3ccccc3c2)CC(=O)N(CCCN)CC(=O)N(Cc2ccc3ccccc3c2)CC(=O)N(CCCN)CC(=O)N(Cc2ccc3ccccc3c2)CC1=O [Compound 21, C(NapNnm)3] | 31.3 µg/mL (≈ 33.5 µM) | 0.5 µg/mL (≈ 0.535 µM) | 31.3 µg/mL (≈ 33.5 µM) | >250 µg/mL | >250 µg/mL |  |  |  |  |  | 

— patent US9872495B2, “Peptoid oligomers, pharmaceutical compositions and methods of using the same” (priority 2009, dated 2018)
